Our source for the Kd values is PubChem BioAssay AID1033 (Sanford-Burnham Center for Chemical Genomics, 2008).

The term Kd denotes a measure of binding affinity in units of concentration.

Active and inactive are the calls of the source. How the calls were made is not given here.

This test deals with Chaperone protein DnaK (Escherichia coli (strain K12)) (UniProt P0A6Y8). Put plainly: binders of DnaK substrate-binding domain, biophysical, NMR, chaperone (AID 1033). The following applies: Purified DnaK SBD, NMR ligand binding.
Chaperone protein DnaK (Escherichia coli (strain K12)), sequence (P0A6Y8 whole entry, looked up, the tested form may be a part): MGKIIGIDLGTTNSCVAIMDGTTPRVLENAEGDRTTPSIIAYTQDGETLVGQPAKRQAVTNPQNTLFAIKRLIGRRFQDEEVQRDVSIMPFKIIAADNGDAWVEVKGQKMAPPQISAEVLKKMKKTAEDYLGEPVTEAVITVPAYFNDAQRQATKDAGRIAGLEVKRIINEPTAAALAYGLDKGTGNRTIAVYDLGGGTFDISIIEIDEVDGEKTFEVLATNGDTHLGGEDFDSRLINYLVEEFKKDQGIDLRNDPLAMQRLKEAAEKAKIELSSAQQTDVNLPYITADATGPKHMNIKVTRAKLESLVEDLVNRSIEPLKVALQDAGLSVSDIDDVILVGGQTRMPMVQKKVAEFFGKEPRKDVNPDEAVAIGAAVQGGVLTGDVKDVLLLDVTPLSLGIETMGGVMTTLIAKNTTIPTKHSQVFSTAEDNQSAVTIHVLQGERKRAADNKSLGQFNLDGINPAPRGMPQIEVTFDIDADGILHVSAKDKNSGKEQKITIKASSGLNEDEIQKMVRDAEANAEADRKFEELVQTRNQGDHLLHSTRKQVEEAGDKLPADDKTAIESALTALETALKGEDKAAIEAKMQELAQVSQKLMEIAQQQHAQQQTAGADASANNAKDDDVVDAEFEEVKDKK
`CC(C)=CC1C(C(=O)O)C1(C)C` (centres undefined): the Kd is > 4 mM (inactive).
The same measure for `CC(=O)c1cc(C)ccc1OC(=O)c1cccnc1`: > 4 mM (inactive); for `COC(=O)CCC(C)C1CCC2C3CCC4C[C@H](O)CC[C@]4(C)C3C[C@H](O)[C@]12C` (some centres undefined): > 4 mM (inactive); for `Cc1noc(C)c1C(=O)Nc1cccnc1`: > 4 mM (inactive).
The same measure for `CCn1nnc(NC(=O)c2cc3ccccc3o2)n1`: > 4 mM (inactive).
The same measure for `CCOC(=O)c1cnc2cc(C)nn2c1C`: > 4 mM (inactive); for `Cc1cc(O)c2c(c1O)C(=O)c1c(O)cc(C)c(O)c1C2=O`: > 4 mM (inactive).
With `NC(=O)C1CCN(CC2CC=CCC2)CC1` (centres undefined), the Kd was > 4 mM (inactive).
The same measure for `CCOC(=O)c1c(C)cc(O)c(C)c1O`: > 4 mM (inactive); for `O=C(O)c1ccc(CSc2ncn[nH]2)cc1`: > 4 mM (inactive); for `Cc1nc(NC(=O)c2cccnc2)ccc1Br`: > 4 mM (inactive).
The same measure for `C=C1C(=O)OC2CC1C(OC(C)=O)C/C(C)=C/CC/C(C)=C/CC[C@]2(C)O` (some centres undefined): > 4 mM (inactive).
The same measure for `CC(=O)c1cccc(NC(=O)N2CCc3ccccc3C2)c1`: > 4 mM (inactive).
For `c1ccn(Cc2ccncc2)c1`, the Kd is > 4 mM (inactive).
The same measure for `NCc1n[nH]c(=O)c2ccccc12`: > 4 mM (inactive).
The same measure for `C/C(=C\CO)CC[C@H](C)CCC[C@H](C)CCCC(C)C`: > 4 mM (inactive); for `CN(C)C(=O)N1CCN(C(=O)c2ccco2)CC1`: > 4 mM (inactive); for `NCc1ccc(S(=O)(=O)O)cc1`: > 4 mM (inactive).
Take `O=c1oc2c(O)c(O)cc3c(=O)oc4c(O)c(O)cc1c4c23`: the Kd was > 4 mM (inactive).
The same measure for `OC12CC3CC(CC(C3)C1)C2`: > 4 mM (inactive); for `COc1ccc(O)c(-c2cn[nH]c2-c2cccs2)c1`: > 4 mM (inactive); for `O=C(O)CCC1NCC2CC1CN1CCCCC21` (centres undefined): > 4 mM (inactive).
The same measure for `CC(=O)c1c(C)nc(-c2ccc(Cl)cc2Cl)n1O`: > 4 mM (inactive); for `CN1CCN(CC(=O)NC2CCCCC2)CC1`: > 4 mM (inactive).
The same measure for `COc1nc(C)ccc1-c1noc(-c2ccncc2)n1`: > 4 mM (inactive); for `CC(=O)Nc1ccc(C)cc1NC(C)=O`: > 4 mM (inactive); for `O=C(NCO)c1ccccc1Cl`: > 4 mM (inactive).
Consider `CC(=O)O[C@H]1CC[C@@]2(C)C(C[C@@H](OC(C)=O)[C@@]3(C)C4=CC(=O)O[C@@H](c5ccoc5)[C@]4(C)CCC23)C1(C)C` (some centres undefined), for which the Kd is > 4 mM (inactive).
The same measure for `Cc1ccccc1NC(=O)C1CC(=O)N=C(N)S1` (centres undefined): > 4 mM (inactive); for `O=C(O)C1CN(Cc2ccccc2)CCO1` (centres undefined): > 4 mM (inactive).
On to `O=C1CC(c2ccccc2)n2ncnc2N1` (centres undefined), for which the Kd was > 4 mM (inactive).
The same measure for `O=[N+]([O-])c1cccc(CN2CCC(O)CC2)c1`: > 4 mM (inactive).
The same measure for `CSc1nc(C)cc(Oc2ccc(=O)n(C)n2)n1`: > 4 mM (inactive).
The same measure for `Cc1noc(-c2ccccc2)c1C(=O)O`: > 4 mM (inactive); for `CN1CN/C(=N\[N+](=O)[O-])N(c2ccccc2)C1`: > 4 mM (inactive).
`COc1c(C(=O)N2CCCC2)ccc2ccccc12`: the Kd is > 4 mM (inactive).
The same measure for `Cc1n[nH]c(C)c1-c1ccccc1C(=O)O`: > 4 mM (inactive); for `Nc1ncnc(NCc2cccnc2)c1[N+](=O)[O-]`: > 4 mM (inactive); for `CCOc1ccc2ccccc2c1C(=O)N1CCOCC1`: > 4 mM (inactive).
The same measure for `COc1cc([C@@H]2c3cc4c(cc3C(OC3O[C@@H]5COC(C)O[C@H]5[C@H](O)[C@H]3O)C3COC(=O)[C@@H]32)OCO4)cc(OC)c1O` (some centres undefined): > 4 mM (inactive); for `C/C=C(/C)C(=O)O[C@H]1CC[C@@]2(C)[C@@H]3CC[C@H]4[C@]5(O)C[C@H](O)[C@@]6(O)[C@@H](CN7C[C@@H](C)CC[C@H]7[C@@]6(C)O)[C@]5(O)C[C@@]42OC13O`: > 4 mM (inactive); for `CC1(O)CC2C=CC1C2` (centres undefined): > 4 mM (inactive).
The same measure for `OCC1CCN(c2ncccn2)CC1`: > 4 mM (inactive).
On to `CCn1nnnc1Oc1ccc(Cl)cc1`, for which the Kd was > 4 mM (inactive).
The same measure for `COc1ccc(-c2cn[nH]c2N)c(OC)c1`: > 4 mM (inactive); for `OCn1nnn(-c2ccccc2)c1=S`: > 4 mM (inactive).
For `O=C1CCCN1C(=O)c1ccc(F)cc1`, the Kd is > 4 mM (inactive).
In the case of `O=c1cc(CO)oc(CN2CCCCC2)c1O`, the Kd was > 4 mM (inactive).
The same measure for `[O-][n+]1onc2c1CCc1c-2nn(-c2ccccc2)[n+]1[O-]`: > 4 mM (inactive); for `COCC(=O)Nc1cccc2ccccc12`: > 4 mM (inactive); for `O=C(O)/C=C(\CC(=O)O)C(=O)O`: > 4 mM (inactive).
The same measure for `CN(C)S(=O)(=O)c1cccc(N)c1`: > 4 mM (inactive); for `Oc1ccc2c(c1)OCO2`: > 4 mM (inactive).
The same measure for `Nc1cccc(S(=O)(=O)N2CCCCC2)c1`: > 4 mM (inactive); for `CC(=O)c1cccc(NC2=NCC(C)(C)S2)c1`: > 4 mM (inactive); for `O=C(O)c1cccc(N2C(=O)C3CC=CCC3C2=O)c1` (centres undefined): > 4 mM (inactive).
As for `NC(=O)C1CC2C=CC1C2` (centres undefined), the Kd was > 4 mM (inactive).
The same measure for `NC(=O)C1CCN(C(=O)c2ccccc2)CC1`: > 4 mM (inactive); for `Cc1sc2nc[nH]c(=S)c2c1C`: > 4 mM (inactive); for `C=C[C@@](C)(O)CCC1C(=C)CCC2[C@@](C)(CO)CCC[C@]12C` (some centres undefined): > 4 mM (inactive).
The same measure for `O=C(O)C(O)C(O)C(O)C(O)C(=O)O` (centres undefined): > 4 mM (inactive); for `OCC1COc2ccccc2O1` (centres undefined): > 4 mM (inactive).
The same measure for `CC1=C2[C@H]3OC(=O)[C@@H](C)[C@@H]3CC[C@@]2(C)C=CC1=O`: > 4 mM (inactive).
Take `O=CN1CCN(C(=O)c2ccccc2Cl)CC1`: the Kd was > 4 mM (inactive).
The same measure for `CCn1cnc2scc(-c3ccccc3)c2c1=O`: > 4 mM (inactive); for `NCc1cccc2c1OCCCO2`: > 4 mM (inactive).
The same measure for `COCCn1c(C)cc(O)cc1=O`: > 4 mM (inactive).
The same measure for `Oc1cccc2[nH]ccc12`: > 4 mM (inactive).
For `CCn1cnc2sc(C(=O)O)c(C)c2c1=O`, the Kd is > 4 mM (inactive).
The same measure for `Nc1ncc2[nH]cnc2n1`: > 4 mM (inactive); for `Cc1cccc(CO)n1`: > 4 mM (inactive).
The same measure for `CNS(=O)(=O)c1ccc2[nH]c(=O)[nH]c2c1`: > 4 mM (inactive); for `Cc1cc(C)n2nc(C(=O)Nc3cccnc3)nc2n1`: > 4 mM (inactive).
The same measure for `Cc1cc(NC(=O)CS(=O)(=O)c2ccccc2)no1`: > 4 mM (inactive); for `Cn1ncc(C(=O)NC2CCCCC2)c1Cl`: > 4 mM (inactive); for `O=C(Nn1cnnc1)c1csc2c1CCCC2`: > 4 mM (inactive).
In the case of `Cc1cc(C)c2ccc[n+]([O-])c2c1O`, the Kd is > 4 mM (inactive).
The same measure for `Cc1nn(C)c2sc(C(=O)O)cc12`: > 4 mM (inactive); for `CN1C(=O)C2C=CC1C1C(=O)N(c3ccccc3)C(=O)C21` (centres undefined): > 4 mM (inactive); for `Cc1ccc(-c2nc(-c3cccnc3)no2)cc1`: > 4 mM (inactive).
As to `O=C(O)c1csc(-c2cccs2)n1`, the Kd is > 4 mM (inactive).
As to `O=C(Nc1nncs1)Oc1ccccc1`, the Kd was > 4 mM (inactive).
The same measure for `Oc1ccc(C(=S)N2CCCCC2)cc1Cl`: > 4 mM (inactive); for `COc1cc2c(cc1O)CCNC2C` (centres undefined): > 4 mM (inactive); for `FC(F)(F)c1cc(-c2ccco2)nc(N2CCOCC2)n1`: > 4 mM (inactive).
The same measure for `Fc1ccc(Br)cc1/C=N/n1cnnc1`: > 4 mM (inactive); for `CNC(=O)c1cc(C)c(-c2ccccc2)s1`: > 4 mM (inactive); for `COn1c(=O)c(-c2ccco2)[n+]([O-])c2ccccc21`: > 4 mM (inactive).
The same measure for `O=C(O)c1cc2ccccc2[nH]1`: > 4 mM (inactive); for `Cc1ccc(SCc2nc(-c3cccnc3)no2)cc1`: > 4 mM (inactive); for `CC(=O)OC1CC[C@@]2(C)C(CCC3C2CC[C@]2(C)C(C4=CC(=O)OC4)C(OC(C)=O)CC32O)C1` (some centres undefined): > 4 mM (inactive).
With `Cc1ccc(NC(=O)C2CCCNC2=O)nc1` (centres undefined), the Kd is > 4 mM (inactive).
Turning to `C(=N\n1cnnc1)/c1cccs1`, the Kd is > 4 mM (inactive).
The same measure for `Cc1ccc(NC(=O)C2CCN(S(C)(=O)=O)CC2)cc1`: > 4 mM (inactive); for `COc1cccc(O)c1O`: > 4 mM (inactive).
The same measure for `COc1cc(OC)c2c(OC)c(-c3ccc4c(c3)OCO4)c(=O)oc2c1`: > 4 mM (inactive); for `O=C(NCCCO)c1ccncc1`: > 4 mM (inactive).
The same measure for `CCCCCCCCCCCCCc1ccco1`: > 4 mM (inactive); for `Cc1nnc(NCc2cccnc2)[nH]c1=O`: > 4 mM (inactive).
With `COc1ccc(-c2oc3cc(O[C@H]4O[C@H](CO)[C@@H](O)[C@H](O)[C@H]4O)c(OC)c(O)c3c(=O)c2OC)cc1O`, the Kd is > 4 mM (inactive).
The same measure for `NC(=O)c1ccccc1NC(=O)C1CC1`: > 4 mM (inactive); for `COCC(=O)OCn1nnc2ccccc2c1=O`: > 4 mM (inactive).
As for `COc1ccc2c(c1)OC1(O)COc3cc(OC)c(OC)cc3C1=C2` (centres undefined), the Kd was > 4 mM (inactive).
The same measure for `CCNC(CC(=O)Nc1ccc(O)cc1)C(=O)O` (centres undefined): > 4 mM (inactive).
